Calls of active or inactive are those of the source. The rule behind the calls is not given here.
Columns and labels:
Mus musculus [1] = test: Reduction of immobility time in Albino Swiss mouse at 2 mg/kg, ip pretreated for 30 mins by forced swimming test; assay type: functional; parameters: scale not given: the % may be the effect or the level left; details: route intraperitoneal
Mus musculus [2] = test: Reduction of immobility time in Albino Swiss mouse at 1 mg/kg, ip pretreated for 30 mins by forced swimming test; assay type: functional; parameters: scale not given: the % may be the effect or the level left; details: route intraperitoneal
[3] = target: T1, 5-hydroxytryptamine receptor 1A (Rattus norvegicus, UniProt P19327); test: Displacement of [3H]8-OH-DPAT from 5HT1A receptor in rat brain membranes; assay type: cell membranes
T1 sequence (P19327 whole entry): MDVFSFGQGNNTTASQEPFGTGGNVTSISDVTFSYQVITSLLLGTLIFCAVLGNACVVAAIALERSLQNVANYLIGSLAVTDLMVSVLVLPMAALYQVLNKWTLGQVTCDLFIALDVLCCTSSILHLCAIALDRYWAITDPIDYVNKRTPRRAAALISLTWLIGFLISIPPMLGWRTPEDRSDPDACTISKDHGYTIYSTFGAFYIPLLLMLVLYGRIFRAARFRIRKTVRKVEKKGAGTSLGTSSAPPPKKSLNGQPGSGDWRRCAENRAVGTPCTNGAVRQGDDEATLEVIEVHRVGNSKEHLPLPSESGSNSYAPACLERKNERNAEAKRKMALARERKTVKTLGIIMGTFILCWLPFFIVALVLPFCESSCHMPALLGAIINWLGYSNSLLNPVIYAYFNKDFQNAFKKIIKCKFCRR

[4] = target: Sodium-dependent serotonin transporter (Rattus norvegicus, UniProt P31652); test: Displacement of [3H]citalopram from 5HTT in rat brain membranes; assay type: cell membranes
Sequence of Sodium-dependent serotonin transporter (P31652 whole entry): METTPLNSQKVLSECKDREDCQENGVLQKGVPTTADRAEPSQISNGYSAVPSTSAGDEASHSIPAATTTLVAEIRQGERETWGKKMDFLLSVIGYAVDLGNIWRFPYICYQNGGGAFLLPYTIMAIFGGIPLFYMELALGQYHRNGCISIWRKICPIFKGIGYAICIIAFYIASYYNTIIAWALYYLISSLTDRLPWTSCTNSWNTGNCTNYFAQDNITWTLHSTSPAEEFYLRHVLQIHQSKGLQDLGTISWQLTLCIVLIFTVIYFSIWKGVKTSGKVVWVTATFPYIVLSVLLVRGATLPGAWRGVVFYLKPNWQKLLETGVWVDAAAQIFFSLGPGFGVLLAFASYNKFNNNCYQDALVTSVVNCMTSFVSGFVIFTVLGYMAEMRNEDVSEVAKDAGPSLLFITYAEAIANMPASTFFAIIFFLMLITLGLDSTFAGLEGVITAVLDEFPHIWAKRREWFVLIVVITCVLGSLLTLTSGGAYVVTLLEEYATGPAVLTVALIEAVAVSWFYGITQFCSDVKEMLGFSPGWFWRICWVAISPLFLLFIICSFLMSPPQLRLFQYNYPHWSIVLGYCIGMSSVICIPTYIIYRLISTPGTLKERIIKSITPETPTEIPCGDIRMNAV

Mus musculus [5] = test: Induction of hypothermia in Albino Swiss mouse assessed as change in body temperature pretreated for 30 mins at 5 mg/kg, ip measured 60 mins after drug dose; assay type: functional, organism-based; parameters: dose 5 mg/kg
Mus musculus [6] = test: Induction of hypothermia in Albino Swiss mouse assessed as change in body temperature pretreated for 30 mins at 5 mg/kg, ip measured 30 mins after drug dose; assay type: functional, organism-based; parameters: dose 5 mg/kg
Mus musculus [7] = test: Induction of hypothermia in Albino Swiss mouse assessed as change in body temperature pretreated for 30 mins at 10 mg/kg, ip measured 30 mins after drug dose; assay type: functional, organism-based; parameters: dose 10 mg/kg
Mus musculus [8] = test: Inhibition of 8-OH-DPAT-induced hypothermia in Albino Swiss mouse assessed as change in body temperature at 20 mg/kg, ip; assay type: functional, organism-based; parameters: dose 20 mg/kg
Mus musculus [9] = test: Induction of hypothermia in Albino Swiss mouse assessed as change in body temperature pretreated for 30 mins at 20 mg/kg, ip measured 30 mins after drug dose; assay type: functional, organism-based; parameters: dose 20 mg/kg
Mus musculus [10] = test: Induction of hypothermia in Albino Swiss mouse assessed as change in body temperature pretreated for 30 mins at 10 mg/kg, ip measured 60 mins after drug dose; assay type: functional, organism-based; parameters: dose 10 mg/kg
Mus musculus [11] = test: Induction of hypothermia in Albino Swiss mouse assessed as change in body temperature pretreated for 30 mins at 20 mg/kg, ip measured 90 mins after drug dose; assay type: functional, organism-based; parameters: dose 20 mg/kg
Mus musculus [12] = test: Induction of hypothermia in Albino Swiss mouse assessed as change in body temperature pretreated for 30 mins at 20 mg/kg, ip measured 120 mins after drug dose; assay type: functional, organism-based; parameters: dose 20 mg/kg
Mus musculus [13] = test: Induction of hypothermia in Albino Swiss mouse assessed as change in body temperature pretreated for 30 mins at 5 mg/kg, ip measured 120 mins after drug dose; assay type: functional, organism-based; parameters: dose 5 mg/kg
Mus musculus [14] = test: Induction of hypothermia in Albino Swiss mouse assessed as change in body temperature pretreated for 30 mins at 10 mg/kg, ip measured 120 mins after drug dose; assay type: functional, organism-based; parameters: dose 10 mg/kg
Mus musculus [15] = test: Induction of hypothermia in Albino Swiss mouse assessed as change in body temperature pretreated for 30 mins at 20 mg/kg, ip measured 60 mins after drug dose; assay type: functional, organism-based; parameters: dose 20 mg/kg
Mus musculus [16] = test: Induction of hypothermia in Albino Swiss mouse assessed as change in body temperature pretreated for 30 mins at 5 mg/kg, ip measured 90 mins after drug dose; assay type: functional, organism-based; parameters: dose 5 mg/kg
Mus musculus [17] = test: Induction of hypothermia in Albino Swiss mouse assessed as change in body temperature pretreated for 30 mins at 10 mg/kg, ip measured 90 mins after drug dose; assay type: functional, organism-based; parameters: dose 10 mg/kg
Mus musculus [18] = test: Induction of hypothermia in 0.1 mg/kg WAY 100635 pretreated Albino Swiss mouse assessed as change in body temperature at 20 mg/kg, ip measured 60 mins after drug dose; assay type: functional, organism-based
Mus musculus [19] = test: Reduction of immobility time in Albino Swiss mouse at 10 mg/kg, ip pretreated for 30 mins by forced swimming test; assay type: functional; parameters: scale not given: the % may be the effect or the level left
Mus musculus [20] = test: Effect on spontaneous locomotor activity in Albino Swiss mouse assessed as number of light-beam crossings in actiometers pretreated for 30 mins at 20 mg/kg, ip measured during 30 mins post drug dose; assay type: functional; details: route intraperitoneal
Mus musculus [21] = test: Effect on spontaneous locomotor activity in Albino Swiss mouse assessed as number of light-beam crossings in actiometers pretreated for 30 mins at 20 mg/kg, ip measured during 6 mins post drug dose; assay type: functional; details: route intraperitoneal
Mus musculus [22] = test: Induction of hypothermia in 0.1 mg/kg WAY 100635 pretreated Albino Swiss mouse assessed as change in body temperature at 20 mg/kg, ip measured 30 mins after drug dose; assay type: functional, organism-based
Mus musculus [23] = test: Reduction of spontaneous locomotor activity in Albino Swiss mouse at 20 mg/kg, ip during 30 mins; assay type: functional, organism-based; parameters: dose 20 mg/kg
Mus musculus [24] = test: Effect on spontaneous locomotor activity in Albino Swiss mouse assessed as number of light-beam crossings in actiometers pretreated for 30 mins at 10 mg/kg, ip measured during 30 mins post drug dose; assay type: functional; details: route intraperitoneal
Mus musculus [25] = test: Reduction of spontaneous locomotor activity in Albino Swiss mouse at 20 mg/kg, ip during 6 mins; assay type: functional, organism-based; parameters: dose 20 mg/kg
Mus musculus [26] = test: Effect on spontaneous locomotor activity in Albino Swiss mouse assessed as number of light-beam crossings in actiometers pretreated for 30 mins at 10 mg/kg, ip measured during 6 mins post drug dose; assay type: functional; details: route intraperitoneal
Mus musculus [27] = species: Mus musculus; details: Albino Swiss, 10 mg/kg
Description: Induction of hypothermia in 0.1 mg/kg WAY 100635 pretreated Albino Swiss mouse assessed as change in body temperature at 10 mg/kg, ip measured 60 mins after drug dose

Mus musculus [28] = test: Reduction of immobility time in Albino Swiss mouse at 20 mg/kg, ip pretreated for 30 mins by forced swimming test; assay type: functional; parameters: scale not given: the % may be the effect or the level left
Mus musculus [29] = species: Mus musculus; details: Albino Swiss, 10 mg/kg; remark: listed apart in the source
Description: Induction of hypothermia in 0.1 mg/kg WAY 100635 pretreated Albino Swiss mouse assessed as change in body temperature at 10 mg/kg, ip measured 30 mins after drug dose

Row | Ki [3] [µM] | Ki [4] [µM] | SMILES | deltaT (Mus musculus [5]) [°C] | deltaT (Mus musculus [6]) [°C] | deltaT (Mus musculus [7]) [°C] | deltaT (Mus musculus [9]) [°C] | deltaT (Mus musculus [10]) [°C] | deltaT (Mus musculus [11]) [°C] | deltaT (Mus musculus [12]) [°C] | deltaT (Mus musculus [13]) [°C] | deltaT (Mus musculus [14]) [°C] | deltaT (Mus musculus [15]) [°C] | deltaT (Mus musculus [16]) [°C] | deltaT (Mus musculus [17]) [°C] | deltaT (Mus musculus [18]) [°C] | deltaT (Mus musculus [22]) [°C] | further results
1 |  |  | Br.CCCN(CCC)C1CCc2cccc(O)c2C1 (configuration not stated) |  |  |  |  |  |  |  |  |  |  |  |  |  |  | Activity (Mus musculus [1]): 57%; Activity (Mus musculus [2]): 45%
2 | 0.0411 | 0.251 | COc1ccc2[nH]cc(C3CCN(CCCCn4c(=O)c(-c5ccc(Cl)cc5)c5ccccn5c4=O)CC3)c2c1 |  |  |  |  |  |  |  |  |  |  |  |  |  |  | 
3 | 0.0421 | 0.145 | COc1ccc(-c2c(=O)n(CCCCN3CCC(c4c[nH]c5ccccc45)CC3)c(=O)n3ccccc23)cc1 | -0.6 | -0.3 | -0.3 | -0.3 | -0.3 | -0.2 | -0.1 | -0.4 | -0.2 | -0.2 | -0.6 | -0.1 |  |  | Activity (Mus musculus [8]): inactive
4 | 0.0109 | 0.0581 | O=c1c(-c2ccccc2)c2ccccn2c(=O)n1CCCCN1CCC(c2c[nH]c3ccccc23)CC1 | -0.5 | -0.4 | -0.8 | -1.2 | -0.4 | -1.1 | -1.9 | -0.1 | -0.1 | -1.3 | -0.4 | -0.3 | -0.3 | -0.5 | Activity (Mus musculus [19]; route intraperitoneal): 29%; Activity (Mus musculus [20]): 926; Activity (Mus musculus [21]): 409
5 | 0.0371 | 0.28 | O=c1c(-c2ccc(Cl)cc2)c2ccccn2c(=O)n1CCCCN1CCC(c2c[nH]c3ccccc23)CC1 | -0.4 | -0.5 | -0.4 | -1.2 | -0.1 | -1.1 | -0.7 | -0.2 | -0.1 | -1 | -0.4 | -0.1 | -0.2 | -0.4 | 
6 | 0.0048 | 0.0007 | O=c1c(-c2ccccc2F)c2ccccn2c(=O)n1CCCCN1CCC(c2c[nH]c3ccccc23)CC1 | -0.3 | -0.5 | -0.8 | -1.1 | -0.2 | -0.7 | -0.7 | -0.1 | -0.1 | -0.8 | -0.1 | -0.3 | -0.1 | -0.3 | Activity (Mus musculus [23]): Active; Activity (Mus musculus [19]; route intraperitoneal): 40%; Activity (Mus musculus [24]): 399; Activity (Mus musculus [25]): Active; Activity (Mus musculus [26]): 179
7 | 0.0092 | 0.0376 | O=c1c(-c2ccc(F)cc2)c2ccccn2c(=O)n1CCCCN1CCC(c2c[nH]c3ccccc23)CC1 | -0.3 | -0.4 | -1.2 | -1.2 | -1.2 | -0.8 | -0.6 | -0.3 | -0.8 | -1 | -0.4 | -1 |  |  | deltaT (Mus musculus [27]): -0.8 °C; Activity (Mus musculus [24]): 965; Activity (Mus musculus [28]; route intraperitoneal): 34%; deltaT (Mus musculus [29]): -0.8 °C; Activity (Mus musculus [26]): 376
8 | 0.0523 | 0.129 | COc1ccc2[nH]cc(C3CCN(CCCCn4c(=O)c(-c5ccccc5)c5ccccn5c4=O)CC3)c2c1 |  |  |  |  |  |  |  |  |  |  |  |  |  |  | 
9 | 0.059 | 0.223 | COc1ccc2[nH]cc(C3CCN(CCCCn4c(=O)c(-c5ccc(C)cc5)c5ccccn5c4=O)CC3)c2c1 |  |  |  |  |  |  |  |  |  |  |  |  |  |  | 
10 | 0.078 | 0.129 | COc1ccc(-c2c(=O)n(CCCCN3CCC(c4c[nH]c5ccc(OC)cc45)CC3)c(=O)n3ccccc23)cc1 |  |  |  |  |  |  |  |  |  |  |  |  |  |  | 
11 | 0.0058 | 0.0003 | Cc1ccc(-c2c(=O)n(CCCCN3CCC(c4c[nH]c5ccccc45)CC3)c(=O)n3ccccc23)cc1 | 0.2 | -0.4 | -0.5 | -1 | -0.3 | -0.7 | -0.8 | -0.1 | -0.1 | -0.8 | -0.1 | -0.1 | -0.2 | -0.3 | Activity (Mus musculus [19]): inactive; Activity (Mus musculus [28]): inactive
12 | 0.0167 | 0.0593 | COc1ccc2[nH]cc(C3CCN(CCCCn4c(=O)c(-c5ccccc5F)c5ccccn5c4=O)CC3)c2c1 |  |  |  |  |  |  |  |  |  |  |  |  |  |  | 
13 | 0.0346 | 0.0546 | COc1ccc2[nH]cc(C3CCN(CCCCn4c(=O)c(-c5ccc(F)cc5)c5ccccn5c4=O)CC3)c2c1 |  |  |  |  |  |  |  |  |  |  |  |  |  |  | 

Reference: ChEMBL document CHEMBL1137726, “Novel 4-aryl-pyrido[1,2-c]pyrimidines with dual SSRI and 5-HT1A activity, part 1” (Eur J Med Chem, 2009)
